In data set [1] the test system is Cyperus serotinus. Put plainly: Herbicidal activity against Cyperus serotinus assessed as phytotoxic activity ratings (0- no effect to 5-complete killing rating scale) at 3.1 to 100 g/a measured after 3 weeks post compound treatment under green house conditions. It is filed as functional.
The subject of data set [2] is Schoenoplectiella juncoides. Put plainly: Herbicidal activity against Schoenoplectiella juncoides var. Hotarui Ohwi assessed as phytotoxic activity ratings (0- no effect to 5-complete killing rating scale) at 100 g/a measured after 3 weeks post compound treatment under green house conditions. It is filed as functional.
For another data set, the system named is Cyperus difformis. In words: Herbicidal activity against Cyperus difformis assessed as phytotoxic activity ratings (0- no effect to 5-complete killing rating scale) at 100 g/a measured after 3 weeks post compound treatment under green house conditions. It counts as functional.
Another data set relates to Echinochloa oryzicola. In words: Herbicidal activity against Echinochloa oryzicola assessed as phytotoxic activity ratings (0- no effect to 5-complete killing rating scale) at 100 g/a measured after 3 weeks post compound treatment under green house conditions. It is filed as functional.
Data set [3] concerns Oryza sativa. Put plainly: Phytotoxicity against directly seeded Oryza sativa (rice) seedlings assessed as phytotoxic activity ratings (0- no effect to 5-complete killing rating scale) at 100 g/a measured after 3 weeks post compound treatment under green house conditions. It counts as organism-based. The following applies: in vivo, 504 h.
For data set [4], the system named is Oryza sativa. In words: Phytotoxicity against transplanted Oryza sativa (rice) seedlings assessed as phytotoxic activity ratings (0- no effect to 5-complete killing rating scale) at 100 g/a measured after 3 weeks post compound treatment under green house conditions. It is filed as organism-based. The following applies: in vivo, 504 h.
For data set [5], the system named is Cyperus serotinus. In words: Herbicidal activity against Cyperus serotinus assessed as phytotoxic activity ratings (0- no effect to 5-complete killing rating scale) at 100 g/a measured after 3 weeks post compound treatment under green house conditions. It counts as functional.

Activity data for 30 compounds are collected here from ChEMBL document CHEMBL3046383, “Enantioselective Herbicidal Activity of Chiral α-Methylbenzylphenylureas against Cyperaceae and Echinochloa Paddy Weeds” (Biosci Biotechnol Biochem, 1998).

Each structure is given as a SMILES string. The source made the active and inactive calls. No rule for the calls is given here.

For `CCCCCCCc1ccc(NC(=O)N[C@H](C)c2ccccc2)cc1`, the outcome in the data set on Cyperus serotinus [1] was inactive. Moreover, the Activity (in data set [2]; with Cyperus difformis; with Echinochloa oryzicola; in the data set with Oryza sativa [3]; in the data set with Oryza sativa [4]) was 0% in each case.
For the compound `CC(=O)c1ccccc1NC(=O)N[C@H](C)c1ccccc1`, in the data set on Cyperus serotinus [1], the result was inactive. The Activity (in data set [2]; in the data set with Cyperus difformis; with Echinochloa oryzicola; in the data set with Oryza sativa [3]; in the data set with Oryza sativa [4]) was 0% throughout.
With `COc1ccc(NC(=O)N[C@H](C)c2ccccc2)cc1`, in the data set with Cyperus serotinus [1], the result was inactive. The Activity (in data set [2]; in the data set on Cyperus difformis; in the data set with Echinochloa oryzicola; in the data set with Oryza sativa [3]; in the data set with Oryza sativa [4]) was 0% throughout.
As for `C[C@H](NC(=O)Nc1cccc(Cl)c1)c1ccccc1`, the outcome in the data set on Cyperus serotinus [1] was inactive. The Activity in data set [2] was 0%; in the data set on Cyperus difformis, 10%; in the data set with Echinochloa oryzicola, 0%; with Oryza sativa [3], 0%; in the data set on Oryza sativa [4], 0%.
For the compound `C[C@@H](NC(=O)Nc1cc(C(F)(F)F)ccc1F)c1ccccc1`, the outcome with Cyperus serotinus [1] was inactive. For the same compound, the Activity in data set [2] is 0%; in the data set on Cyperus difformis, 0%; in the data set on Echinochloa oryzicola, 80%; in the data set on Oryza sativa [3], 10%; in the data set with Oryza sativa [4], 0%.
For `C[C@H](NC(=O)Nc1cccc(I)c1)c1ccccc1`, in the data set on Cyperus serotinus [1], the result was inactive. Moreover, the Activity in data set [2] was determined as 0%; in the data set on Cyperus difformis, 10%; in the data set on Echinochloa oryzicola it was 0%; in the data set on Oryza sativa [3], 0%; in the data set with Oryza sativa [4], 0%.
Regarding `C[C@@H](NC(=O)Nc1cc(C(C)(C)C)ccc1C(C)(C)C)c1ccccc1`, the result in the data set on Cyperus serotinus [1] was inactive. Also, the Activity (in data set [2]; in the data set with Cyperus difformis; in the data set with Echinochloa oryzicola; with Oryza sativa [3]; with Oryza sativa [4]) was 0% each time.
On to `C[C@@H](NC(=O)Nc1cccc(F)c1)c1ccccc1`, for which, in the data set with Cyperus serotinus [1], the outcome was inactive. Besides, the Activity in data set [2] came out at 0%; in the data set with Cyperus difformis, 10%; with Echinochloa oryzicola, 0%; in the data set with Oryza sativa [3] it was 0%; with Oryza sativa [4], 0%.
As for `C[C@@H](NC(=O)Nc1ccc(I)cc1)c1ccccc1`, the result in the data set on Cyperus serotinus [1] was inactive. For the same compound, the Activity (in data set [2]; with Cyperus difformis; in the data set on Echinochloa oryzicola; with Oryza sativa [3]; in the data set with Oryza sativa [4]) was 0% each time.
Consider `C[C@H](NC(=O)Nc1ccc(F)cc1F)c1ccccc1`, for which the result in the data set with Cyperus serotinus [1] was inactive. Moreover, the Activity (in data set [2]; with Cyperus difformis; in the data set with Echinochloa oryzicola; with Oryza sativa [3]; in the data set with Oryza sativa [4]) was 0% throughout.
For the compound `C[C@@H](NC(=O)Nc1ccc(Cl)cc1)c1ccccc1`, the outcome with Cyperus serotinus [1] was inactive. Further, the Activity (in data set [2]; with Cyperus difformis; in the data set on Echinochloa oryzicola; in the data set on Oryza sativa [3]; in the data set on Oryza sativa [4]) was 0% in each case.
With `CCc1cccc(CC)c1NC(=O)N[C@@H](C)c1ccccc1`, the result with Cyperus serotinus [1] was inactive. Also, the Activity (in data set [2]; with Cyperus difformis; with Echinochloa oryzicola; in the data set on Oryza sativa [3]; in the data set on Oryza sativa [4]) was 0% throughout.
`C[C@H](NC(=O)Nc1cccc(Br)c1)c1ccccc1`: the result in the data set with Cyperus serotinus [1] was inactive. The Activity in data set [2] was 0%; in the data set on Cyperus difformis it was 10%; in the data set on Echinochloa oryzicola it was 0%; in the data set on Oryza sativa [3], 0%; in the data set with Oryza sativa [4] it was 0%.
`C[C@H](NC(=O)Nc1ccc(I)cc1)c1ccccc1`: in the data set on Cyperus serotinus [1], the result was inactive. In addition, the Activity (in data set [2]; in the data set with Cyperus difformis; in the data set on Echinochloa oryzicola; with Oryza sativa [3]; in the data set on Oryza sativa [4]) was 0% each time.
Consider `C[C@@H](NC(=O)Nc1ccccc1Cl)c1ccccc1`, for which, in the data set on Cyperus serotinus [1], the outcome was inactive. For the same compound, the Activity in data set [2] was 0%; in the data set with Cyperus difformis, 10%; with Echinochloa oryzicola, 0%; with Oryza sativa [3] it was 0%; with Oryza sativa [4] it was 0%.
Take `C[C@@H](NC(=O)Nc1cc(F)ccc1F)c1ccccc1`: the result with Cyperus serotinus [1] was inactive. Also, the Activity (in data set [2]; with Cyperus difformis; with Echinochloa oryzicola; with Oryza sativa [3]; in the data set on Oryza sativa [4]) was 0% throughout.
`CCOC(=O)c1ccccc1NC(=O)N[C@H](C)c1ccccc1`: in the data set on Cyperus serotinus [1], the outcome was inactive. Also, the Activity (in data set [2]; in the data set with Cyperus difformis; in the data set on Echinochloa oryzicola; in the data set on Oryza sativa [3]; with Oryza sativa [4]) was 0% in each case.
Take `CCCCCc1ccc(NC(=O)N[C@@H](C)c2ccccc2)cc1`: the result with Cyperus serotinus [1] was inactive. Further, the Activity (in data set [2]; with Cyperus difformis; with Echinochloa oryzicola; with Oryza sativa [3]; in the data set with Oryza sativa [4]) was 0% throughout.
Take `C[C@@H](NC(=O)Nc1ccc(F)c(F)c1)c1ccccc1`: the result in the data set on Cyperus serotinus [1] was inactive. For the same compound, the Activity (in data set [2]; in the data set with Cyperus difformis; in the data set on Echinochloa oryzicola; in the data set with Oryza sativa [3]; with Oryza sativa [4]) was 0% throughout.
Take `C[C@@H](NC(=O)Nc1ccc(F)cc1)c1ccccc1`: in the data set on Cyperus serotinus [1], the result was inactive. In addition, the Activity (in data set [2]; with Cyperus difformis; with Echinochloa oryzicola; in the data set with Oryza sativa [3]; with Oryza sativa [4]) was 0% in each case.
`C[C@@H](NC(=O)Nc1c(F)cccc1F)c1ccccc1`: the Activity in the data set on Cyperus serotinus [5] was 40%; in data set [2], 40%; with Cyperus difformis, 40%; in the data set with Echinochloa oryzicola it was 40%; with Oryza sativa [4] it was 0%.
For `C[C@H](NC(=O)Nc1ccc(F)cc1)c1ccccc1`, in the data set with Cyperus serotinus [1], the result was inactive. The Activity (in data set [2]; with Cyperus difformis; in the data set on Echinochloa oryzicola; with Oryza sativa [3]; with Oryza sativa [4]) was 0% in each case.
For `CC(=O)c1cccc(NC(=O)N[C@@H](C)c2ccccc2)c1`, in the data set on Cyperus serotinus [1], the outcome was inactive. Besides, the Activity (in data set [2]; in the data set on Cyperus difformis; with Echinochloa oryzicola; in the data set with Oryza sativa [3]; in the data set on Oryza sativa [4]) was 0% in each case.
As for `C[C@H](NC(=O)Nc1ccc(Cl)cc1)c1ccccc1`, in the data set on Cyperus serotinus [1], the result was inactive. The Activity (in data set [2]; in the data set on Cyperus difformis; in the data set on Echinochloa oryzicola; in the data set with Oryza sativa [3]; with Oryza sativa [4]) was 0% in each case.
For `C[C@H](NC(=O)Nc1ccc(F)c(F)c1)c1ccccc1`, in the data set on Cyperus serotinus [1], the outcome was inactive. In addition, the Activity (in data set [2]; in the data set on Cyperus difformis; in the data set on Echinochloa oryzicola; in the data set with Oryza sativa [3]; with Oryza sativa [4]) was 0% in each case.
`CCCCCCc1ccc(NC(=O)N[C@H](C)c2ccccc2)cc1`: the outcome with Cyperus serotinus [1] was inactive. The Activity (in data set [2]; in the data set with Cyperus difformis; with Echinochloa oryzicola; with Oryza sativa [3]; in the data set on Oryza sativa [4]) was 0% in each case.
For `CCCCc1ccc(NC(=O)N[C@H](C)c2ccccc2)cc1`, the result in the data set with Cyperus serotinus [1] was inactive. Also, the Activity in data set [2] came out at 0%; in the data set with Cyperus difformis it was 0%; in the data set on Echinochloa oryzicola, 10%; in the data set on Oryza sativa [3], 10%; in the data set on Oryza sativa [4], 0%.
On to `C[C@@H](NC(=O)Nc1ccc(C(C)(C)C)cc1)c1ccccc1`, for which, in the data set with Cyperus serotinus [1], the outcome was inactive. Also, the Activity in data set [2] was 0%; with Cyperus difformis it was 0%; with Echinochloa oryzicola it was 10%; in the data set on Oryza sativa [3], 0%; with Oryza sativa [4] it was 0%.
Take `Cc1ccc(NC(=O)N[C@H](C)c2ccccc2)c(F)c1`: the outcome with Cyperus serotinus [1] was inactive. Further, the Activity (in data set [2]; in the data set on Cyperus difformis; in the data set on Echinochloa oryzicola; in the data set on Oryza sativa [3]; with Oryza sativa [4]) was 0% in each case.
As to `C[C@H](NC(=O)Nc1cc(C(F)(F)F)ccc1F)c1ccccc1`, the outcome in the data set on Cyperus serotinus [1] was inactive. Further, the Activity (in data set [2]; with Cyperus difformis; with Echinochloa oryzicola; with Oryza sativa [3]; in the data set on Oryza sativa [4]) was 0% throughout.
